From US10383943B2, “Compositions and related methods for the treatment of cancer” (South Dakota Board of Regents, priority 2016, dated 2019)

Tests used:
[1] = test system: Primary human tonsil epithelial cells (HTE); experiment: Colony forming assay (crystal violet, A540) in primary HTE cells; type: cell-based; details: FIG. 7
[2] = test system: SCC47 cells (HPV+ human HNSCC); experiment: Colony forming assay (crystal violet, A540) in SCC47 cells; type: cell-based; details: FIG. 7
Protocol: (§1) In order to further assess the effect of A-platin on cancer cell growth, colony forming assays using Head and Neck Squamous Cell Carcinoma (HNSCC) were preformed. Briefly, 10,000 cells were plated in triplicate in 6-well plates per treatment condition. The next day cells were treated with the cisplatin, A-platin, or G-platin at the variable doses. On day 6 from plating, cells were fixed in 70% ethanol and stained with 0.5% crystal violet in 10% ethanol. After sufficient washing and drying, cells were destained in 25% glacial acetic acid, and absorbance of 100 uL of each destain solution was read on a SpectraMax plate reader at 540 nm (A540). A540 is an indirect measure of the amount of crystal violet per well, and thus the number of cells per well.

[3] = test system: SCC1 cells (HPV-human HNSCC); experiment: Colony forming assay (crystal violet, A540) in SCC1 cells; type: cell-based; details: 10-500 μM, p<0.03 compared to control, FIG. 7
Protocol: as §1

[4] = test system: White blood cell (WBC) counts; experiment: White blood cell (WBC) toxicity in mice; type: in vivo; details: FIG. 10
From the text: White blood cell (WBC) counts are important for immune mediated tumor clearance. In order to assess the level of WBC toxicity of induced by A-Platin relative the WBC lose was quantified in mice following treatment with drug along and drug administered in conjunction with radiation.

Row | Structure (SMILES) | cell number (A540) ([1]; 10-500 μM, p<0.04 compared to control) | cell number relative to control (A540) ([2]; 50-500 μM, p<0.0007 compared to control) | cell number relative to control (A540) [3] | white blood cell loss ([4]; drug treatment alone groups) | white blood cell loss ([4]; drug+radiation groups) | cell number (A540) ([1]; 1-500 μM, p<0.007 compared to control) | cell number relative to control (A540) ([2]; 10-500 μM, p<0.008 compared to control)
1 | N.N.[Cl][Pt][Cl] [Cisplatin, cis-diamminedichloroplatinum(II), reference compound] | reduced cell number | reduced cell number relative to control | reduced cell number relative to control |  |  |  | 
2 | N[C@@H](Cc1ccc(N=C(O)CCC(=O)[O][Pt]([NH2])([NH2])([OH])([Cl])[Cl])cc1)C(=O)O [AT-Platin] |  |  |  | less white blood cell loss | less white blood cell loss |  | 
3 | [NH2][Pt]([NH2])([OH])([Cl])([Cl])[O]C(=O)CCC(O)=N[C@@H]1C(O)[C@H](O)C(CO)O[C@@H]1O (some centres unmarked) [G-platin] |  |  | reduced cell number relative to control |  |  | reduced cell number | reduced cell number relative to control
